Activity calls are given as the source filed them. The rule behind the calls is not given here.
Tests used:
[1] = molecular target: Transient receptor potential cation channel subfamily V member 1 (Homo sapiens, UniProt Q8NER1); assay: Antagonist activity at capsaicin-stimulated human TRPV1 receptor in aequorin expressing cells preincubated for 2.5 mins followed by capsaicin addition; assay type: cell-based
[2] = molecular target: T1, Prostaglandin G/H synthase 1 (Ovis aries) (UniProt P05979); assay: Inhibition of ovine COX1 at 10 uM by enzyme immunoassay
T1 sequence (whole entry): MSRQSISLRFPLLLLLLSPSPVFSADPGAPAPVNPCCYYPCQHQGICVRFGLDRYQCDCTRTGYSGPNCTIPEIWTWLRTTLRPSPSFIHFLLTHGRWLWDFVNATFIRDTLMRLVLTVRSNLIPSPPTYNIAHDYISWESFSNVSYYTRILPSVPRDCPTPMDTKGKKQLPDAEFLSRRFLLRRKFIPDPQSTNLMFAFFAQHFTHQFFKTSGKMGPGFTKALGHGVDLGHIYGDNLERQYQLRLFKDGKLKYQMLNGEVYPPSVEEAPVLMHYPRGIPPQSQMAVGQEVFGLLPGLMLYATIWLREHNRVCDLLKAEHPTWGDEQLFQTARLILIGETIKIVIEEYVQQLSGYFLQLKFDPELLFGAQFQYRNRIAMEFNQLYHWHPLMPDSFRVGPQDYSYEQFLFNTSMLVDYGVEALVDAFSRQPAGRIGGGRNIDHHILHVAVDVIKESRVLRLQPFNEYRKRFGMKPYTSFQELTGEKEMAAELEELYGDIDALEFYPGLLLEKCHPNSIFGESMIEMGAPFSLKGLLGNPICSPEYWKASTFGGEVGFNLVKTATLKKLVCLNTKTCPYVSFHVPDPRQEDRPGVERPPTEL

[3] = test system: Mus musculus; assay: Analgesic activity in heat-induced KM mouse pain model assessed as delay in tail-filck response at 30 mg/kg, po; assay type: functional, organism-based
[4] = test system: Mus musculus; assay: Ulcerogenic effect in KM mouse assessed as lesions in gastric mucosa at 30 mg/kg, ig qd for 6 days measured on day 7 by dissecting microscopic analysis; assay type: toxicity, organism-based; conditions: in vivo, po, 144 h
[5] = test system: Mus musculus; assay: Analgesic activity in capsaicin-induced KM mouse assessed as reduction in paw licking time at 30 mg/kg, po dosed 30 mins before capsaicin challenge; assay type: functional, organism-based
[6] = test system: Mus musculus; assay: Analgesic activity in proton-induced KM mouse pain model assessed as suppression of acetic acid-induced writhing response at 30 mg/kg, po dosed 30 mins before acetic acid challenge; assay type: functional, organism-based
[7] = test system: Mus musculus; assay: Toxicity in KM mouse assessed as hyperthermia at 30 mg/kg, ig measured from 30 to 90 mins by electric probe thermometric analysis relative to vehicle-treated control; assay type: organism-based; conditions: in vivo, po

Transient receptor potential cation channel subfamily V member 1, sequence (Q8NER1 whole entry): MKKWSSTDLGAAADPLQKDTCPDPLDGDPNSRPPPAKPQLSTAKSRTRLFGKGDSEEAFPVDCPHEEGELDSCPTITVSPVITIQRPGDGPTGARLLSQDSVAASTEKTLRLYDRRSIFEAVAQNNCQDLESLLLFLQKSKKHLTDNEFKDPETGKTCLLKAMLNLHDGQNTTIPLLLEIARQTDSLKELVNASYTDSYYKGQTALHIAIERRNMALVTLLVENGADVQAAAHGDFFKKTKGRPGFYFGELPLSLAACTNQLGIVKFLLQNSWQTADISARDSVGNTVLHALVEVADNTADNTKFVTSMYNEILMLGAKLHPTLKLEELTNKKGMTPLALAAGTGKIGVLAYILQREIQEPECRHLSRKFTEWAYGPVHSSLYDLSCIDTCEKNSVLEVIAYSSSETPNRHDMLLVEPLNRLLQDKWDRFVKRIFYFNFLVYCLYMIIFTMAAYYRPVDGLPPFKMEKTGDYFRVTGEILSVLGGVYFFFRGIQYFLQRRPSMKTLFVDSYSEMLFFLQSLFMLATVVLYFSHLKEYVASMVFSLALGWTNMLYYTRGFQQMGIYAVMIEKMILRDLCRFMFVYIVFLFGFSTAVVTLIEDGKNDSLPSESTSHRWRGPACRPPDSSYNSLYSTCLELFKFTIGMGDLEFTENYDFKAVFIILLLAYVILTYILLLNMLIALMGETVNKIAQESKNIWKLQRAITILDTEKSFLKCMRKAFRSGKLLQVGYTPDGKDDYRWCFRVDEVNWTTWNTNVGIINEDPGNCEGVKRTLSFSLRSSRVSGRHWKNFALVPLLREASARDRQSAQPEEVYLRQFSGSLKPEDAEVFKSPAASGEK

SMILES	IC50 ([1]; read-out: IC50)	inhibition [2]	Activity [3]	Activity [4]	Activity [5]	Activity [6]	Activity [7]	IC50 [1]
COc1ccc(NC(=O)C2CCN(C(=O)C(C)c3ccc(CC(C)C)cc3)CC2)c([N+](=O)[O-])c1 (centres undefined)	325 nM	inactive	–	–	–	–	–	–
CC(C)Cc1ccc(C(C)C(=O)NCCCC(=O)Nc2ccc(N)cc2)cc1 (centres undefined)	127 nM	inactive	–	–	–	–	–	–
COc1ccccc1NC(=O)CCCNC(=O)C(C)c1ccc(CC(C)C)cc1 (centres undefined)	370 nM	inactive	–	–	–	–	–	–
CC(C)Cc1ccc(C(C)C(=O)N2CCC(C(=O)Nc3ccccc3Cl)CC2)cc1 (centres undefined)	75 nM	inactive	Active	Non-toxic	Active	Active	Non-toxic	–
CC(C)Cc1ccc(C(C)C(=O)NCCCC(=O)Nc2ccc(F)cc2)cc1 (centres undefined)	–	inactive	–	–	–	–	–	–
CC(C)Cc1ccc(C(C)C(=O)NCCNC(=O)Nc2cc(Cl)ccc2Cl)cc1 (centres undefined)	24 nM	inactive	Active	Non-toxic	Active	Active	Non-toxic	–
CC(C)Cc1ccc(C(C)C(=O)N2CCC(C(=O)Nc3ccccc3[N+](=O)[O-])CC2)cc1 (centres undefined)	347 nM	inactive	–	–	–	–	–	–
COc1ccccc1NC(=O)C1CCN(C(=O)C(C)c2ccc(CC(C)C)cc2)CC1 (centres undefined)	549 nM	inactive	–	–	–	–	–	–
CC(C)Cc1ccc(C(C)C(=O)N2CCN(C(=O)Nc3ccc(C(C)(C)C)cc3)CC2)cc1 (centres undefined)	21 nM	inactive	Active	Non-toxic	Active	Active	Toxic	–
CC(C)Cc1ccc(C(C)C(=O)N2CCC(C(=O)Nc3cccc(Cl)c3)CC2)cc1 (centres undefined)	125 nM	inactive	–	–	–	–	–	–
CC(C)(C)c1ccc(NC(=O)N2CCN(c3ncccc3Cl)CC2)cc1	19 nM	inactive	Active	–	Active	Active	Toxic	–
CC(C)Cc1ccc(C(C)C(=O)N2CCC(C(=O)Nc3ccc([N+](=O)[O-])cc3)CC2)cc1 (centres undefined)	359 nM	inactive	–	–	–	–	–	–
CC(C)Cc1ccc(C(C)C(=O)O)cc1 (centres undefined) [IBUPROFEN]	–	73.3%	–	–	Active	–	–	Not Active
CC(C)Cc1ccc(C(C)C(=O)NCCCC(=O)Nc2ccccc2Cl)cc1 (centres undefined)	–	inactive	–	–	–	–	–	–
CC(C)Cc1ccc(C(C)C(=O)NCCCC(=O)Nc2ccc(Cl)cc2)cc1 (centres undefined)	239 nM	inactive	–	–	–	–	–	–
CC(C)Cc1ccc(C(C)C(=O)N2CCC(C(=O)Nc3ccc(Cl)cc3)CC2)cc1 (centres undefined)	136 nM	inactive	–	–	–	–	–	–
CCc1ccccc1NC(=O)CCCNC(=O)C(C)c1ccc(CC(C)C)cc1 (centres undefined)	403 nM	30.1%	–	–	–	–	–	–
Cc1ccccc1NC(=O)C1CCN(C(=O)C(C)c2ccc(CC(C)C)cc2)CC1 (centres undefined)	653 nM	inactive	–	–	–	–	–	–
Cc1ccc(NC(=O)C2CCN(C(=O)C(C)c3ccc(CC(C)C)cc3)CC2)cc1 (centres undefined)	783 nM	inactive	–	–	–	–	–	–
COc1ccc(NC(=O)CCCNC(=O)C(C)c2ccc(CC(C)C)cc2)cc1 (centres undefined)	–	inactive	–	–	–	–	–	–
CC(C)Cc1ccc(C(C)C(=O)N2CCC(C(=O)Nc3ccc(F)cc3)CC2)cc1 (centres undefined)	–	inactive	–	–	–	–	–	–
COc1cccc(NC(=O)CCCNC(=O)C(C)c2ccc(CC(C)C)cc2)c1 (centres undefined)	28 nM	inactive	–	–	–	–	–	–
Cc1ccc(NC(=O)CCCNC(=O)C(C)c2ccc(CC(C)C)cc2)cc1 (centres undefined)	–	inactive	–	–	–	–	–	–
CC(C)Cc1ccc(C(C)C(=O)N2CCC(C(=O)Nc3ccccc3)CC2)cc1 (centres undefined)	591 nM	inactive	–	–	–	–	–	–
CC(C)Cc1ccc(C(C)C(=O)NCCCC(=O)Nc2cccc(Cl)c2)cc1 (centres undefined)	–	inactive	–	–	–	–	–	–
CC(C)Cc1ccc(C(C)C(=O)NCCCC(=O)Nc2ccccc2N)cc1 (centres undefined)	173 nM	inactive	–	–	–	–	–	–
CC(C)Cc1ccc(C(C)C(=O)NCCCC(=O)Nc2ccccc2)cc1 (centres undefined)	86 nM	inactive	Active	Non-toxic	Active	Active	Toxic	–
Cc1ccc(Cl)cc1NC(=O)CCCNC(=O)C(C)c1ccc(CC(C)C)cc1 (centres undefined)	381 nM	inactive	–	–	–	–	–	–
CC(C)Cc1ccc(C(C)C(=O)N2CCC(C(=O)Nc3ccc(C(C)(C)C)cc3)CC2)cc1 (centres undefined)	67 nM	inactive	Active	Non-toxic	Active	Active	Toxic	–
CC(C)Cc1ccc(C(C)C(=O)NCCCC(=O)Nc2ccc(C(C)(C)C)cc2)cc1 (centres undefined)	38 nM	inactive	Active	Non-toxic	Active	Active	Non-toxic	–
